Test results as given in patent publication US11168095B2, “ASK1 inhibiting agents” (BIOGEN MA INC., priority 2017, dated 2021).
Where two headings read alike, the source gives them in different places.

Key:
[1] = target: ASK1 T838 auto phosphorylation in HEK-293T cells (Homo sapiens (Human), UniProt Q99683); assay: ASK1 (AUTO PHOS T838) assay, MSD format; format: cell-based
ASK1/MAP3K5 = ASK1/MAP3K5 (Homo sapiens (Human), UniProt Q99683); assay: ASK1/MAP3K5 assay by Reaction Biology Corp.; format: biochemical
ASK1/MAP3K5, sequence (Q99683 whole entry): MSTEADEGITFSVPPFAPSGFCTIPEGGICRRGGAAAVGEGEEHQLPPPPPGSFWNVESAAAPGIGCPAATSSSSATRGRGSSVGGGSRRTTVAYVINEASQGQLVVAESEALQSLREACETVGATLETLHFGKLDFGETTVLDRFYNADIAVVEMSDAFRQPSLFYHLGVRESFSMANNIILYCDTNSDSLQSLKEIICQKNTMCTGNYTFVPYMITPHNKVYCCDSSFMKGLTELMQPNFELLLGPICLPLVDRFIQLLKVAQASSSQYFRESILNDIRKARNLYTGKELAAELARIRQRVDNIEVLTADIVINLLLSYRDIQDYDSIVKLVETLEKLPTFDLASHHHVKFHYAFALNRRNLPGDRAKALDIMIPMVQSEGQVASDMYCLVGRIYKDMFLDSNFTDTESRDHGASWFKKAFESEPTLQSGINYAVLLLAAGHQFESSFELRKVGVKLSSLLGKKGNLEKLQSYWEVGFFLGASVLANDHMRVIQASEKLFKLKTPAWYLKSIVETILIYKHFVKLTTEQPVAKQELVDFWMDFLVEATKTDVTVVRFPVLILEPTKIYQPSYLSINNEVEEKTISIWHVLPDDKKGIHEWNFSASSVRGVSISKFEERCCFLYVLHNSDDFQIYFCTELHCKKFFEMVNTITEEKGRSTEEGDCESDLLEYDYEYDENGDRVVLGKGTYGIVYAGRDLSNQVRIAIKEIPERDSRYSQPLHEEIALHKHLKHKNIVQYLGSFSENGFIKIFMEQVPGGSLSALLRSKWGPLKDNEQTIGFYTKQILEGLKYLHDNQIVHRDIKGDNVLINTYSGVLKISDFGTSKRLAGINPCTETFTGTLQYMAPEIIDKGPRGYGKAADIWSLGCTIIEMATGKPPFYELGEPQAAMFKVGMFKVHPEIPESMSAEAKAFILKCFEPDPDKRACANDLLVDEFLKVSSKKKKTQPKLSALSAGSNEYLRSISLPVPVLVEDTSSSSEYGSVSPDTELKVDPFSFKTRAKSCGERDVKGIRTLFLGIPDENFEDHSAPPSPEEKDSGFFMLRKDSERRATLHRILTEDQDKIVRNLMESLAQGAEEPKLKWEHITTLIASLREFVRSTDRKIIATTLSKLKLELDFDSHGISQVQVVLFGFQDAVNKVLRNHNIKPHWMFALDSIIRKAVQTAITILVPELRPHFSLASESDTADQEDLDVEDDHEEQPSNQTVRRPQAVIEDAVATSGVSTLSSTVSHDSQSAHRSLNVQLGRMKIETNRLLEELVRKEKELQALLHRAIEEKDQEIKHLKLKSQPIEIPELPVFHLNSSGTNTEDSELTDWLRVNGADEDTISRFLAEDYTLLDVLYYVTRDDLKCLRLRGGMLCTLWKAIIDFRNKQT
Protocol: ASK1/MAP3K5 was used as the protein kinase and 20 μM of myelin basic protein (MBP) and 10 μM ATP were used as the substrate.

[2] = HEK 293T cells transfected with ASK1-V5 full length plasmid, compounds 1 hr at 37° C., read-out: IC50
[3] = 20 μM myelin basic protein (MBP), 10 μM ATP

ASK1 T838 auto phosphorylation in HEK-293T cells, sequence (Q99683 whole entry): as above

| IC50 [1, 2] [µM] | IC50 (ASK1/MAP3K5; [3]) [µM] | Compound | IC50 [1] [µM] | IC50 (ASK1/MAP3K5) [µM] |
| --- | --- | --- | --- | --- |
| < 1 | < 0.1 | COCCOc1cc2c(cc1F)OCCC[C@H](C)n1cnnc1-c1cccc(n1)NC2=O [Example 117, (S)-5^4-Fluoro-5^5-(2-methoxyethoxy)-10-methyl-1^4H-6-oxa-3-aza-2(2,6)-pyridina-1(3,4)-triazola-5(1,2)-benzenacyclodecaphan-4-one] | – | – |
| < 1 | < 0.1 | C[C@H]1CCCOc2cc(F)c(C#N)cc2C(=O)Nc2cccc(n2)-c2nncn21 [Example 118, (S)-5^4-Fluoro-10-methyl-4-oxo-1^4H-6-oxa-3-aza-2(2,6)-pyridina-1(3,4)-triazola-5(1,2)-benzenacyclodecaphane-5^5-carbonitrile] | – | – |
| < 1 | < 0.1 | C[C@H]1CCCOc2cc(S(C)(=O)=O)c(Br)cc2C(=O)Nc2cccc(n2)-c2nncn21 [Example 119, (S)-5^5-Bromo-10-methyl-5^4-(methylsulfonyl)-1^4H-6-oxa-3-aza-2(2,6)-pyridina-1(3,4)-triazola-5(1,2)-benzenacyclodecaphan-4-one] | – | – |
| < 1 | < 0.1 | C[C@H]1CCCOc2cc(N3CCN(C)CC3)ccc2C(=O)Nc2cccc(n2)-c2nncn21 [Example 122, (S)-10-Methyl-5^4-(4-methylpiperazin-1-yl)-1^4H-6-oxa-3-aza-2(2,6)-pyridina-1(3,4)-triazola-5(1,2)-benzenacyclodecaphan-4-one] | – | – |
| 1 to 10 | 1 to 10 | C[C@@H]1CCCOc2cc(N3CCN(C)CC3)ccc2C(=O)Nc2cccc(n2)-c2nncn21 [Example 123, (R)-10-Methyl-5^4-(4-methylpiperazin-1-yl)-1^4H-6-oxa-3-aza-2(2,6)-pyridina-1(3,4)-triazola-5(1,2)-benzenacyclodecaphan-4-one] | – | – |
| < 1 | < 0.1 | C[C@H]1CCOc2cc(F)c(Br)cc2C(=O)Nc2cccc(n2)-c2nncn2C1 [Example 124, (S)-5^5-Bromo-5^4-fluoro-9-methyl-1^4H-6-oxa-3-aza-2(2,6)-pyridina-1(3,4)-triazola-5(1,2)-benzenacyclodecaphan-4-one] | – | – |
| 1 to 10 | 0.1 to 1 | C[C@@H]1CCOc2cc(F)c(Br)cc2C(=O)Nc2cccc(n2)-c2nncn2C1 [Example 125, (R)-5^5-Bromo-5^4-fluoro-9-methyl-1^4H-6-oxa-3-aza-2(2,6)-pyridina-1(3,4)-triazola-5(1,2)-benzenacyclodecaphan-4-one] | – | – |
| – | – | C[C@H]1CCOc2cc(F)c(C#CC3(C)COC3)cc2C(=O)Nc2cccc(n2)-c2nncn2C1 [Example 134, (S)-5^4-Fluoro-9-methyl-5^5-((3-methyloxetan-3-yl)ethynyl)-1^4H-6-oxa-3-aza-2(2,6)-pyridina-1(3,4)-triazola-5(1,2)-benzenacyclodecaphan-4-one] | < 1 | < 0.1 |
| < 1 | < 0.1 | COCCOc1cc2c(cc1F)OCC[C@H](C)Cn1cnnc1-c1cccc(n1)NC2=O [Example 135, (S)-5^4-Fluoro-5^5-(2-methoxyethoxy)-9-methyl-1^4H-6-oxa-3-aza-2(2,6)-pyridina-1(3,4)-triazola-5(1,2)-benzenacyclodecaphan-4-one] | – | – |
| < 1 | < 0.1 | C[C@H]1CCCn2cnnc2-c2cccc(n2)NC(=O)c2cc(Br)ccc2O1 [Example 136, (S)-5^5-Bromo-7-methyl-1^4H-6-oxa-3-aza-2(2,6)-pyridina-1(3,4)-triazola-5(1,2)-benzenacyclodecaphan-4-one] | – | – |
| 1 to 10 | < 0.1 | C[C@@H]1CCCn2cnnc2-c2cccc(n2)NC(=O)c2cc(Br)ccc2O1 [Example 137, (R)-5^5-Bromo-7-methyl-1^4H-6-oxa-3-aza-2(2,6)-pyridina-1(3,4)-triazola-5(1,2)-benzenacyclodecaphan-4-one] | – | – |
| < 1 | < 0.1 | C[C@H]1CCCn2cnnc2-c2cccc(n2)NC(=O)c2cc(N3CCN(C)CC3)ccc2O1 [Example 140, (S)-7-Methyl-5^5-(4-methylpiperazin-1-yl)-1^4H-6-oxa-3-aza-2(2,6)-pyridina-1(3,4)-triazola-5(1,2)-benzenacyclodecaphan-4-one] | – | – |
| < 1 | < 0.1 | C[C@@H]1CCCn2cnnc2-c2cccc(n2)NC(=O)c2cc(N3CCN(C)CC3)ccc2O1 [Example 141, (R)-7-Methyl-5^5-(4-methylpiperazin-1-yl)-1^4H-6-oxa-3-aza-2(2,6)-pyridina-1(3,4)-triazola-5(1,2)-benzenacyclodecaphan-4-one] | – | – |
| < 1 | < 0.1 | C[C@H]1CCCn2cnnc2-c2cccc(n2)NC(=O)c2cc(N3CCOCC3)ccc2O1 [Example 142, (S)-7-Methyl-5^5-morpholino-1^4H-6-oxa-3-aza-2(2,6)-pyridina-1(3,4)-triazola-5(1,2)-benzenacyclodecaphan-4-one] | – | – |
| < 1 | < 0.1 | C[C@@H]1CCCn2cnnc2-c2cccc(n2)NC(=O)c2cc(N3CCOCC3)ccc2O1 [Example 143, (R)-7-Methyl-5^5-morpholino-1^4H-6-oxa-3-aza-2(2,6)-pyridina-1(3,4)-triazola-5(1,2)-benzenacyclodecaphan-4-one] | – | – |
| < 1 | < 0.1 | C[C@H]1CCCn2cnnc2-c2cccc(n2)NC(=O)c2cc(-c3ccncc3)ccc2O1 [Example 144, (S)-7-Methyl-5^5-(pyridin-4-yl)-1^4H-6-oxa-3-aza-2(2,6)-pyridina-1(3,4)-triazola-5(1,2)-benzenacyclodecaphan-4-one] | – | – |
| < 1 | < 0.1 | C[C@@H]1CCCn2cnnc2-c2cccc(n2)NC(=O)c2cc(-c3ccncc3)ccc2O1 [Example 145, (R)-7-Methyl-5^5-(pyridin-4-yl)-1^4H-6-oxa-3-aza-2(2,6)-pyridina-1(3,4)-triazola-5(1,2)-benzenacyclodecaphan-4-one] | – | – |
| < 1 | < 0.1 | C[C@H]1CCCn2cnnc2-c2cccc(n2)NC(=O)c2cc(-c3cnn(CCN(C)C)c3)ccc2O1 [Example 146, (S)-5^5-(1-(2-(Dimethylamino)ethyl)-1H-pyrazol-4-yl)-7-methyl-1^4H-6-oxa-3-aza-2(2,6)-pyridina-1(3,4)-triazola-5(1,2)-benzenacyclodecaphan-4-one] | – | – |
| < 1 | < 0.1 | C[C@@H]1CCCn2cnnc2-c2cccc(n2)NC(=O)c2cc(-c3cnn(CCN(C)C)c3)ccc2O1 [Example 147, (R)-5^5-(1-(2-(Dimethylamino)ethyl)-1H-pyrazol-4-yl)-7-methyl-1^4H-6-oxa-3-aza-2(2,6)-pyridina-1(3,4)-triazola-5(1,2)-benzenacyclodecaphan-4-one] | – | – |
| < 1 | 0.1 to 1 | C[C@H]1CCCn2cnnc2-c2cccc(n2)NC(=O)c2cc(C#N)ccc2O1 [Example 150, (S)-7-Methyl-4-oxo-1^4H-6-oxa-3-aza-2(2,6)-pyridina-1(3,4)-triazola-5(1,2)-benzenacyclodecaphane-5^5-carbonitrile] | – | – |
| < 1 | < 0.1 | C[C@@H]1CCCn2cnnc2-c2cccc(n2)NC(=O)c2cc(C#N)ccc2O1 [Example 151, (R)-7-Methyl-4-oxo-1^4H-6-oxa-3-aza-2(2,6)-pyridina-1(3,4)-triazola-5(1,2)-benzenacyclodecaphane-5^5-carbonitrile] | – | – |
| 1 to 10 | 0.1 to 1 | O=C1Nc2cccc(n2)-c2nncn2CCCCOc2c(Br)cccc21 [Example 165, 5^3-Bromo-1^4H-6-oxa-3-aza-2(2,6)-pyridina-1(3,4)-triazola-5(1,2)-benzenacyclodecaphan-4-one] | – | – |
| < 1 | < 0.1 | O=C1Nc2cccc(n2)-c2nncn2C/C=C\CCOc2ccccc21 [Example 174, (E)-1^4H-6-Oxa-3-aza-2(2,6)-pyridina-1(3,4)-triazola-5(1,2)-benzenacycloundecaphan-9-en-4-one] | – | – |
| < 1 | < 0.1 | O=C1Nc2cccc(n2)-c2nncn2C/C=C/CCOc2ccccc21 [Example 175, (Z)-1^4H-6-oxa-3-aza-2(2,6)-pyridina-1(3,4)-triazola-5(1,2)-benzenacycloundecaphan-9-en-4-one] | – | – |
| 1 to 10 | < 0.1 | O=C1Nc2cccc(n2)-c2nncn2C/C=C\CCOc2cc(F)c(Br)cc21 [Example 176, (E)-5^5-Bromo-5^4-fluoro-1^4H-6-oxa-3-aza-2(2,6)-pyridina-1(3,4)-triazola-5(1,2)-benzenacycloundecaphan-9-en-4-one] | – | – |
| 1 to 10 | < 0.1 | O=C1Nc2cccc(n2)-c2nncn2C/C=C/CCOc2cc(F)c(Br)cc21 [Example 177, (Z)-5^5-Bromo-5^4-fluoro-1^4H-6-oxa-3-aza-2(2,6)-pyridina-1(3,4)-triazola-5(1,2)-benzenacycloundecaphan-9-en-4-one] | – | – |

| Compound | IC50 [1, 2] [µM] | IC50 (ASK1/MAP3K5; [3]) [µM] | IC50 [1] [µM] | IC50 (ASK1/MAP3K5) [µM] |
| --- | --- | --- | --- | --- |
| Cc1cn(-c2ccc3c(c2)C(=O)Nc2cccc(n2)-c2nncn2CCC[C@H](C)O3)cn1 [Example 148, (S)-7-Methyl-5^5-(4-methyl-1H-imidazol-1-yl)-1^4H-6-oxa-3-aza-2(2,6)-pyridina-1(3,4)-triazola-5(1,2)-benzenacyclodecaphan-4-one] | < 1 | – | – | < 0.1 |
| Cc1cn(-c2ccc3c(c2)C(=O)Nc2cccc(n2)-c2nncn2CCC[C@@H](C)O3)cn1 [Example 149, (R)-7-Methyl-5^5-(4-methyl-1H-imidazol-1-yl)-1^4H-6-oxa-3-aza-2(2,6)-pyridina-1(3,4)-triazola-5(1,2)-benzenacyclodecaphan-4-one] | < 1 | – | – | < 0.1 |
| O=C1Nc2cccc(n2)-c2nncn2C/C=C/COc2ccc(N3CCOCC3)cc21 [Example 168, (E)-5^5-Morpholino-1^4H-6-oxa-3-aza-2(2,6)-pyridina-1(3,4)-triazola-5(1,2)-benzenacyclodecaphan-8-en-4-one] | < 1 | – | – | < 0.1 |
